In paper PMC3906059, “Activation and Inhibition of TMEM16A Calcium-Activated Chloride Channels” (PLoS ONE, 2014):
Several values for one entry are separate records, joined by “and”; a condition that tells them apart may be missing. Equal entries are not always repeated. Entries after “also recorded” stand apart in the source; their conditions may differ.

What was measured:
[1] = biological target: T1, TMEM16A (ANO1) (Mus musculus, UniProt Q8BHY3); experiment: Anion permeability of the ANO1 pore, Erev under bi-ionic conditions; assay type: cell-based; settings: for permeability ratio PX/PCl: Ca^2+-activated current, calculated from Erev after junction potential correction; for zero current potential of I–V curve: example ramp −80 to +80 mV, [Ca^2+] = 20 µM, intracellular salt 140 mM (NaHCO3 130 mM + 10 mM NaCl)
T1 construct: We subcloned the coding region of the cDNA into pEGFP-N3 vector; expressed in transfected cells; host or cells: HEK293 cells
T1 sequence (Q8BHY3 1-956 isoform Q8BHY3-2): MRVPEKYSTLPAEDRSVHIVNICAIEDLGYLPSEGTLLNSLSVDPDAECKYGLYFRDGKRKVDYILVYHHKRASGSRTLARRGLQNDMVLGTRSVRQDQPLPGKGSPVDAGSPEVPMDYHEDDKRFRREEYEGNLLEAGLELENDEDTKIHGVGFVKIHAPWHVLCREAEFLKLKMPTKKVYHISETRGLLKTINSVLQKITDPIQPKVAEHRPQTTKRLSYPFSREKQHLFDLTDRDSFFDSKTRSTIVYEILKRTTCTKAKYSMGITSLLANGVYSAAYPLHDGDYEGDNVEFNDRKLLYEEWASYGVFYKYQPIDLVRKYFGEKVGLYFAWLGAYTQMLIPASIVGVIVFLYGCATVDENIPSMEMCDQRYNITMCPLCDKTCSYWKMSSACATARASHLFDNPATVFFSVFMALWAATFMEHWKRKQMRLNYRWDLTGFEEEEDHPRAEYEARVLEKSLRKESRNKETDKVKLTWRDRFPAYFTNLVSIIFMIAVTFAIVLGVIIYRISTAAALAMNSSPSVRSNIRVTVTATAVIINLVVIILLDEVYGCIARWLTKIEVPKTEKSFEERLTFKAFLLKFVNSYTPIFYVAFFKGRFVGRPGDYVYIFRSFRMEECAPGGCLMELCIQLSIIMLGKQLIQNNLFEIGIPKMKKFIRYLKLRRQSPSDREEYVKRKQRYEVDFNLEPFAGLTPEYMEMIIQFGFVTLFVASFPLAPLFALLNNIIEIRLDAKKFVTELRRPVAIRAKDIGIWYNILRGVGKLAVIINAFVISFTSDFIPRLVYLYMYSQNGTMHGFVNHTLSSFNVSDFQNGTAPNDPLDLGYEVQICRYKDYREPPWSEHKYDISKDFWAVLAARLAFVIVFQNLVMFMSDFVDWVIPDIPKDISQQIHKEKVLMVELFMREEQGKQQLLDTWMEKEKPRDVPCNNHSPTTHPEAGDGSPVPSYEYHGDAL
Source text: (§1) The mouse TMEM16A cDNA (NCBI reference sequence: NM_001242349.1) encoding ANO1 CaCC was a generous gift from Dr. Lily Jan. We subcloned the coding region of the cDNA into pEGFP-N3 vector (Clontech Laboratories, Inc.), resulting in a construct in which an enhanced green fluorescent protein (eGFP) was attached to the C-terminus of the ANO1 protein. The sequence was confirmed by commercially-available DNA sequencing service. This eGFP-attached ANO1 cDNA construct was used for channel expression throughout the study. The cDNA was transfected into human embryonic kidney (HEK) 293 cells using lipofectamine transfection methods, [42], [43]. A fluorescent light source and a GFP filter set (Chroma Technology Co.) in the DM IRB inverted microscope (Leica Microsystems) were used to identify transfected cells expressing channel proteins. Electrophysiological experiments were performed ∼24 to 72 hours after transfection.
The anion permeability of the ANO1 pore was examined under bi-ionic conditions in which the extracellular solution contained 140 mM NaCl (the zero-Ca^2+ solution). The intracellular solution contained 140 mM sodium salts of various anions with the exception of the HCO3 ^− experiment in which the solution contained 130 mM NaHCO3 and 10 mM NaCl. In all intracellular solutions for the bi-ionic experiments, 0.1 mM EGTA and 0.12 mM total Ca^2+ or Sr^2+ were added to the solution to activate the ANO1 channel (Free [Ca^2+] or [Sr^2+] were saturating concentrations). Erev of the open channel was measured in two ways. First, under voltage-clamp configuration, a 3-sec voltage ramp from −80 mV to +80 mV was applied and the Erev of the leak-subtracted I-V curve was then determined (see Fig. 5 A & B). The second method employed the current-clamp (I = 0) mode in which the patch was exposed to divalent cations throughout the recording (Fig. 5 C and Fig. 6 A & C). When the intracellular solution contained the same concentration of Cl^− as that in the extracellular side, the recorded voltage (EI = 0) was normally close to 0 mV. When the intracellular solution was replaced by the one containing other anions, the value of EI = 0 changed to a new value corresponding to the Erev of the new ionic condition. It is important to point out that the measurement of Erev can be imprecise if the amplitude of the ANO1 current is not within a proper range. Therefore, in permeability ratio measurements we only used the data obtained from patches with a maximal current in the range of 100 pA–1000 pA at +40 mV. All the presented Erev values (and the recording traces for measuring Erev) are not corrected for junction potential difference between solutions because the junction potentials are relatively small. However, the reported permeability ratios were calculated based on the junction potential-corrected Erev. The correction for the junction potential results in very small changes in the calculated permeability ratios.
The permeability ratios of various anions versus Cl^− (PX/PCl, where X represents various anions) were calculated using the Erev obtained from bi-ionic experiments according to the following equation (eq. 3), PX/PCl = exp[Erev/(RT/F)], where R, T, and F are the gas constant, absolute temperature, and Faraday constant, respectively. Comparing the difference between Erev’s of the Ca^2+- and Sr^2+-activated current was performed using the pair t test at the significant level of 0.05.

[2] = biological target: T1, TMEM16A (ANO1); experiment: Mg^2+ inhibition of Ca^2+-induced ANO1 current and shift of the Ca^2+-activation curve (Schild plot); assay type: cell-based
Source text: as §1
All chemicals were reagent grade. Regular salts (such as NaCl, NaOH, CaCl2, SrCl2, BaCl2, MgCl2 or sodium salts of various anions) were purchased from Fisher Chemicals (Fair Lawn, NJ), J. T. Baker (Phillipsburg, NJ) or Sigma Chemicals Co. (St. Louis, MO). EGTA, HEPES, and NFA were from Sigma Chemicals Co. Excised inside-out patch-clamp recordings were performed throughout the study. The extracellular (pipette) solution in all experiments contained: 140 mM NaCl, 10 mM HEPES, 0.1 mM EGTA, pH = 7.4. The regular intracellular solution contained 10 mM HEPES and 140 mM sodium salt of Cl^− or other anions. Various concentrations of divalent cations were made by adding certain total concentrations of divalent cations (Cl^− salts) into the solution containing a defined concentration of EGTA. We defined the pipette solution as the “zero-Ca^2+” solution. A solution containing a saturating [Ca^2+] was made by adding 0.12 mM total [Ca^2+] into the aforementioned zero-Ca^2+ solution, resulting in a solution containing ∼20 µM free [Ca^2+]. For making non-saturating [Ca^2+] solutions, the solutions included 1 mM EGTA. […]
Because of weak Mg^2+-EGTA binding, we referred the total [Mg^2+] as the free [Mg^2+]. The free [Ca^2+], [Sr^2+], and [Ba^2+] were calculated using the MaxChelator program (Ver1.2) kindly provided by Chris Patton from the Stanford University. […] Table S1, Table S2, and Table S3 list respectively the calculated free [Ca^2+], [Sr^2+], and [Ba^2+] used in this study. […]
Solution exchange was achieved using the SF-77 solution exchanger (Warner Instruments). […] The recorded current is normally time-independent following fast solution exchange, but on infrequent occasions there is a slow increase of current. Therefore, we measured the current amplitude at the end of the solution exchange when the current amplitude reaches a steady-state maximal value. […]

[3] = biological target: T1, TMEM16A (ANO1); experiment: Activation of ANO1 current by divalent cations, excised inside-out patch with fast solution exchange; assay type: cell-based
Source text: as §1
All chemicals were reagent grade. Regular salts (such as NaCl, NaOH, CaCl2, SrCl2, BaCl2, MgCl2 or sodium salts of various anions) were purchased from Fisher Chemicals (Fair Lawn, NJ), J. T. Baker (Phillipsburg, NJ) or Sigma Chemicals Co. (St. Louis, MO). EGTA, HEPES, and NFA were from Sigma Chemicals Co. Excised inside-out patch-clamp recordings were performed throughout the study. The extracellular (pipette) solution in all experiments contained: 140 mM NaCl, 10 mM HEPES, 0.1 mM EGTA, pH = 7.4. The regular intracellular solution contained 10 mM HEPES and 140 mM sodium salt of Cl^− or other anions. Various concentrations of divalent cations were made by adding certain total concentrations of divalent cations (Cl^− salts) into the solution containing a defined concentration of EGTA. We defined the pipette solution as the “zero-Ca^2+” solution. A solution containing a saturating [Ca^2+] was made by adding 0.12 mM total [Ca^2+] into the aforementioned zero-Ca^2+ solution, resulting in a solution containing ∼20 µM free [Ca^2+]. For making non-saturating [Ca^2+] solutions, the solutions included 1 mM EGTA. To make solutions containing Sr^2+ and Ba^2+, only 0.1 mM EGTA was used. The pH of all solutions was adjusted to 7.4.
Because of weak Mg^2+-EGTA binding, we referred the total [Mg^2+] as the free [Mg^2+]. The free [Ca^2+], [Sr^2+], and [Ba^2+] were calculated using the MaxChelator program (Ver1.2) kindly provided by Chris Patton from the Stanford University. This program was developed based on the binding constants available in the National Institute of Standard and Technology (NIST) between EGTA and these three divalent cations. Table S1, Table S2, and Table S3 list respectively the calculated free [Ca^2+], [Sr^2+], and [Ba^2+] used in this study. All added divalent cations were Cl^− salts. […] For example, in a solution containing 5 mM, 10 mM or 30 mM MgCl2, only 130 mM, 120 mM or 80 mM of NaCl, respectively, were added to the solution.
The patch-clamp recording pipettes were fabricated from borosilicate glass capillaries (World Precision Instruments) using PP830 electrode puller (Narishige International). When filled with the pipette solution, the electrode resistance was ∼1.5–3 MΩ. The experiments were carried out at room temperature (20–23°C) using the Axopatch 200B amplifier controlled by the Digidata I/O converter and the pClamp9 software (Axon Instruments/Molecular Devices).
Solution exchange was achieved using the SF-77 solution exchanger (Warner Instruments). After the excised inside-out patch mode was established, the tip of the patch pipette was positioned at the exit of the solution-delivery pipes of the SF-77 solution exchanger. The switch of solution pipes was controlled by a digital signal delivered from the Digidata 1320 digitizing board. […]

[4] = system: CaCC of Xenopus oocytes; design: method as in PMID 11279188; settings: cited from earlier work
[5] = Ca^2+-activated current (20 µM), 140 mM extracellular NaCl, anion as intracellular sodium salt 140 mM (HCO3: 130 mM NaHCO3 + 10 mM NaCl), without junction potential correction, averaged
[6] = Schild plot from K1/2,Ca in 0, 2, 5 and 10 mM Mg^2+

O=C([O-])O.[Na+] [HCO3 ^−]
Erev (bi-ionic potential) [1, 5]: −27.6±2.4 mV | permeability ratio PX/PCl [1]: ~0.3 | zero current potential of I–V curve ([1]; 140 mM extracellular NaCl): -27 mV

N[C@@H](CCC(=O)O)C(=O)[O-].[Na+] [glutamate, Na-glutamate]
Erev (bi-ionic potential) [1, 5]: < −80 mV

[Mg+2] [Mg^2+]
IC50 ([2]; ANO1 current induced by 0.666 µM free Ca^2+, fit to eq. 2, read-out: apparent half-inhibition concentration): 5.4 mM | [Mg^2+] that increases K1/2,Ca 2-fold (Schild plot) [2, 6]: ~2.5 mM | pMg at crossing of the horizontal axis of the Schild plot [2, 6]: ~2.6 | Mg^2+ inhibition of ANO1 current activated by saturating [Ca^2+] ([2]; saturating [Ca^2+], 5 mM Mg^2+ (Fig. 4 C)): not observed; also recorded: not inhibited | ANO1 activation by Mg^2+ ([3]; up to 30 mM [Mg^2+], intracellular side): no ANO1 activation was detected; also recorded: unable to detect ANO1 current

O=C(O)c1ccccc1Nc1ccccc1 [DPC]
sideness of the block [4]: from the extracellular side | voltage dependence of inhibition [4]: voltage dependent

N#C[S-].[Na+] [SCN^−]
Erev (bi-ionic potential) [1, 5]: 62.0±2.4 mV | Erev (bi-ionic potential) ([1]; Ca^2+-activated current (20 µM), 140 mM extracellular NaCl, anion as intracellular sodium salt 140 mM (HCO3: 130 mM NaHCO3 + 10 mM NaCl), without junction potential correction, averaged, listed as SCN^–): ~+60 mV | permeability ratio PX/PCl [1]: ~11 | Erev (bi-ionic potential) ([1]; current activated by 20 µM Sr^2+, current clamp (I = 0), without correcting for junction potential): 59.4±0.8 mV | zero current potential of I–V curve ([1]; 140 mM extracellular NaCl): +64 mV | voltage shift induced by SCN^− in Sr^2+ smaller than that in Ca^2+ by ([1]; same patch, 140 mM intracellular NaSCN, 4 patches): ~1 mV

[Ba+2].[Cl-].[Cl-] [Ba^2+]
fraction of maximal current activated ([3]; 404 µM [Ba^2+]): 70–80% | maximal ANO1 current activated by saturating divalent cation compared with Is induced by saturating [Ca^2+] ([3]; Is induced by 20 µM Ca^2+, ±40 mV): can activate the same maximal current; also recorded: activated the channel to the same maximal current level | Hill coefficient (n) of dose-response activation curve ([3]; values covering +40 and −40 mV): 1.1–1.4 and 1–1.5 | EC50 ([3]; values covering +40 and −40 mV, read-out: K1/2 of ANO1 activation): 130 to 230 µM and 100 to 200 µM
